# Data as given in patent publication US6358885B1, “Substituted phenylheterocyclic herbicides” (Mississippi State University, priority 1992, dated 2002).
# Columns and labels:
# Test in all cases: Test G preemergence/postemergence greenhouse plant response rating 0 to 100
# sandbur = assay type: in vivo, Cenchrus echinatus; details: 0 to 100 scale
# Method in brief: (§1)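 Pre- and postemergence treatments used compound in non-phytotoxic solvent on potted greenhouse plants grown from seed, rhizome or plant part. Postemergence plants were at the 2–4 leaf stage; damage was assessed by eye versus untreated pots after 13–21 days.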
# broadleaf signalgrass = assay type: in vivo, Brachiaria plantaginea; details: 0 to 100 scale
# Method in brief: as §1
# itchgrass = assay type: in vivo, Rottboellia exaltata; details: 0 to 100 scale
# Method in brief: as §1
# dallisgrass = assay type: in vivo, Paspalum dilatatum; details: 0 to 100 scale
# Method in brief: as §1
# common purslane = assay type: in vivo, Portulaca oleracea; details: 0 to 100 scale
# Method in brief: as §1
# common ragweed = assay type: in vivo, Ambrosia elatior; details: 0 to 100 scale
# Method in brief: as §1
# goosegrass = assay type: in vivo, Eleusine indica; details: 0 to 100 scale
# Method in brief: as §1
# johnsongrass = assay type: in vivo, Sorghum halepense; details: 0 to 100 scale
# Method in brief: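 Scoring: visual injury at 13 to 21 days post-application, compared with untreated controls. Planting: one species per pot in greenhouse medium. Dosing: compound in non-phytotoxic solvent, within one day of sowing for preemergence or at 2–4 leaves for postemergence.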
# guineagrass = assay type: in vivo, Panicum maximum; details: 0 to 100 scale
# Method in brief: as §1
# annual bluegrass = assay type: in vivo, Poa annua; details: 0 to 100 scale
# Method in brief: as §1
# smooth crabgrass = assay type: in vivo, Digitaria ischaemum; details: 0 to 100 scale
# Method in brief: as §1
# alfalfa = assay type: in vivo, Medicago ativa; details: 0 to 100 scale
# Method in brief: as §1
# large crabgrass = assay type: in vivo, Digitaria sanguinalis; details: 0 to 100 scale
# Method in brief: as §1
# purple nutsedge = assay type: in vivo, Cyperus rotundus; details: Rate 125 g/ha, 0 to 100 scale
# Method in brief: as §1
# bermudagrass = assay type: in vivo, Cynodon dactylon; details: 0 to 100 scale
# Method in brief: as §1
# pitted morningglory = assay type: in vivo, Ipomoea lacunosa; details: 0 to 100 scale
# Method in brief: as §1
structure (smiles),measurement,setting,value
CC(C)COc1cc(-c2nn3c(c2Cl)CCCC3)c(F)cc1Cl [Compound 30],"Plant response rating, S. Sandbur","sandbur; POSTEMERGENCE, Rate 125 g/ha",0
same,"Plant response rating, S. Sandbur","sandbur; POSTEMERGENCE, Rate 250 g/ha",0
same,"Plant response rating, S. Sandbur","sandbur; PREEMERGENCE, Rate 125 g/ha",0
same,"Plant response rating, S. Sandbur","sandbur; PREEMERGENCE, Rate 250 g/ha",0
same,"Plant response rating, Brdlf Sgnlgrass","broadleaf signalgrass; POSTEMERGENCE, Rate 125 g/ha",0
same,"Plant response rating, Brdlf Sgnlgrass","broadleaf signalgrass; POSTEMERGENCE, Rate 250 g/ha",0
same,"Plant response rating, Brdlf Sgnlgrass","broadleaf signalgrass; PREEMERGENCE, Rate 125 g/ha",0
same,"Plant response rating, Brdlf Sgnlgrass","broadleaf signalgrass; PREEMERGENCE, Rate 250 g/ha",0
same,"Plant response rating, Itchgrass","itchgrass; POSTEMERGENCE, Rate 125 g/ha",0
same,"Plant response rating, Itchgrass","itchgrass; POSTEMERGENCE, Rate 250 g/ha",0
same,"Plant response rating, Itchgrass","itchgrass; PREEMERGENCE, Rate 125 g/ha",0
same,"Plant response rating, Itchgrass","itchgrass; PREEMERGENCE, Rate 250 g/ha",0
same,"Plant response rating, Dallisgrass","dallisgrass; POSTEMERGENCE, Rate 125 g/ha",0
same,"Plant response rating, Dallisgrass","dallisgrass; POSTEMERGENCE, Rate 250 g/ha",0
same,"Plant response rating, Dallisgrass","dallisgrass; PREEMERGENCE, Rate 125 g/ha",0
same,"Plant response rating, Dallisgrass","dallisgrass; PREEMERGENCE, Rate 250 g/ha",0
same,"Plant response rating, Cmn Purslane","common purslane; POSTEMERGENCE, Rate 125 g/ha",70
same,"Plant response rating, Cmn Purslane","common purslane; POSTEMERGENCE, Rate 250 g/ha",60
same,"Plant response rating, Cmn Purslane","common purslane; PREEMERGENCE, Rate 125 g/ha",0
same,"Plant response rating, Cmn Purslane","common purslane; PREEMERGENCE, Rate 250 g/ha",0
same,"Plant response rating, Cmn Ragweed","common ragweed; POSTEMERGENCE, Rate 125 g/ha",40
same,"Plant response rating, Cmn Ragweed","common ragweed; POSTEMERGENCE, Rate 250 g/ha",0
same,"Plant response rating, Cmn Ragweed","common ragweed; PREEMERGENCE, Rate 125 g/ha",0
same,"Plant response rating, Cmn Ragweed","common ragweed; PREEMERGENCE, Rate 250 g/ha",0
same,"Plant response rating, Goosegrass","goosegrass; POSTEMERGENCE, Rate 125 g/ha",0
same,"Plant response rating, Goosegrass","goosegrass; POSTEMERGENCE, Rate 250 g/ha",0
same,"Plant response rating, Goosegrass","goosegrass; PREEMERGENCE, Rate 125 g/ha",0
same,"Plant response rating, Goosegrass","goosegrass; PREEMERGENCE, Rate 250 g/ha",30
same,"Plant response rating, Johnsongrass","johnsongrass; POSTEMERGENCE, Rate 125 g/ha",0
same,"Plant response rating, Johnsongrass","johnsongrass; POSTEMERGENCE, Rate 250 g/ha",0
same,"Plant response rating, Johnsongrass","johnsongrass; PREEMERGENCE, Rate 125 g/ha",0
same,"Plant response rating, Johnsongrass","johnsongrass; PREEMERGENCE, Rate 250 g/ha",0
same,"Plant response rating, Guineagrass","guineagrass; POSTEMERGENCE, Rate 125 g/ha",0
same,"Plant response rating, Guineagrass","guineagrass; POSTEMERGENCE, Rate 250 g/ha",0
same,"Plant response rating, Guineagrass","guineagrass; PREEMERGENCE, Rate 125 g/ha",0
same,"Plant response rating, Guineagrass","guineagrass; PREEMERGENCE, Rate 250 g/ha",0
same,"Plant response rating, Ann Bluegrass","annual bluegrass; POSTEMERGENCE, Rate 125 g/ha",0
same,"Plant response rating, Ann Bluegrass","annual bluegrass; POSTEMERGENCE, Rate 250 g/ha",0
same,"Plant response rating, Ann Bluegrass","annual bluegrass; PREEMERGENCE, Rate 125 g/ha",0
same,"Plant response rating, Ann Bluegrass","annual bluegrass; PREEMERGENCE, Rate 250 g/ha",0
same,"Plant response rating, Smooth Crabgras","smooth crabgrass; POSTEMERGENCE, Rate 125 g/ha",0
same,"Plant response rating, Smooth Crabgras","smooth crabgrass; POSTEMERGENCE, Rate 250 g/ha",0
same,"Plant response rating, Smooth Crabgras","smooth crabgrass; PREEMERGENCE, Rate 125 g/ha",0
same,"Plant response rating, Smooth Crabgras","smooth crabgrass; PREEMERGENCE, Rate 250 g/ha",0
same,"Plant response rating, Alfalfa Var.","alfalfa; POSTEMERGENCE, Rate 125 g/ha",0
same,"Plant response rating, Alfalfa Var.","alfalfa; POSTEMERGENCE, Rate 250 g/ha",0
same,"Plant response rating, Alfalfa Var.","alfalfa; PREEMERGENCE, Rate 125 g/ha",0
same,"Plant response rating, Alfalfa Var.","alfalfa; PREEMERGENCE, Rate 250 g/ha",0
same,"Plant response rating, Large Crabgrass","large crabgrass; POSTEMERGENCE, Rate 125 g/ha",0
same,"Plant response rating, Large Crabgrass","large crabgrass; POSTEMERGENCE, Rate 250 g/ha",0
same,"Plant response rating, Large Crabgrass","large crabgrass; PREEMERGENCE, Rate 125 g/ha",0
same,"Plant response rating, Large Crabgrass","large crabgrass; PREEMERGENCE, Rate 250 g/ha",70
same,"Plant response rating, Purple Nutsedge",purple nutsedge; POSTEMERGENCE,0
same,"Plant response rating, Purple Nutsedge",purple nutsedge; PREEMERGENCE,0
same,"Plant response rating, Bermudagrass","bermudagrass; POSTEMERGENCE, Rate 125 g/ha",0
same,"Plant response rating, Bermudagrass","bermudagrass; POSTEMERGENCE, Rate 250 g/ha",0
same,"Plant response rating, Bermudagrass","bermudagrass; PREEMERGENCE, Rate 125 g/ha",0
same,"Plant response rating, Bermudagrass","bermudagrass; PREEMERGENCE, Rate 250 g/ha",0
same,"Plant response rating, Pit Morninglory","pitted morningglory; POSTEMERGENCE, Rate 125 g/ha",0
same,"Plant response rating, Pit Morninglory","pitted morningglory; POSTEMERGENCE, Rate 250 g/ha",20
same,"Plant response rating, Pit Morninglory","pitted morningglory; PREEMERGENCE, Rate 125 g/ha",0
same,"Plant response rating, Pit Morninglory","pitted morningglory; PREEMERGENCE, Rate 250 g/ha",0
